According to patent US9382204B2, “Inhibitors targeting the DNA-binding domain of human STAT3 for treatment of metastatic cancers” (Indiana University Research and Technology Corporation, priority 2013, dated 2016):
pIC50: −log10 of the molar value.

Key:
p27 promoter = experiment: Luciferase reporter driven by p27 promoter lacking STAT3-binding sequence (STAT3-independent); format: cell-based, human; conditions: H1299 cells
Description: FIG. 2. Effect of inS3-54 on STAT3-dependent and independent luciferase reporter expression. (A and B). Effect on STAT3-dependent luciferase reporter expression. MDA-MB-231-STAT3 cells harboring a STAT3-dependent luciferase reporter construct were treated with increasing concentration of inS3-54 for 72 hrs (A) or with 20 μM inS3-54 for various time (B) followed by luciferase reporter assay. (C). Effect on STAT3-independent luciferase expression. H1299 cells were transiently transfected with a luciferase reporter construct driven by a p27 promoter lacking STAT3-binding sequence followed by treatment with different concentrations of inS3-54 for 48 hrs. (*P<0.05, **P<0.01, ***P<0.001).

STAT1 = target: T1, STAT1 (Homo sapiens, UniProt P42224); experiment: Electrophoretic mobility shift assay (EMSA), DNA-binding activity of STAT1; format: biochemical
T1 construct: expressed in transfected cells; host or cells: H1299
T1 sequence (P42224 1-750): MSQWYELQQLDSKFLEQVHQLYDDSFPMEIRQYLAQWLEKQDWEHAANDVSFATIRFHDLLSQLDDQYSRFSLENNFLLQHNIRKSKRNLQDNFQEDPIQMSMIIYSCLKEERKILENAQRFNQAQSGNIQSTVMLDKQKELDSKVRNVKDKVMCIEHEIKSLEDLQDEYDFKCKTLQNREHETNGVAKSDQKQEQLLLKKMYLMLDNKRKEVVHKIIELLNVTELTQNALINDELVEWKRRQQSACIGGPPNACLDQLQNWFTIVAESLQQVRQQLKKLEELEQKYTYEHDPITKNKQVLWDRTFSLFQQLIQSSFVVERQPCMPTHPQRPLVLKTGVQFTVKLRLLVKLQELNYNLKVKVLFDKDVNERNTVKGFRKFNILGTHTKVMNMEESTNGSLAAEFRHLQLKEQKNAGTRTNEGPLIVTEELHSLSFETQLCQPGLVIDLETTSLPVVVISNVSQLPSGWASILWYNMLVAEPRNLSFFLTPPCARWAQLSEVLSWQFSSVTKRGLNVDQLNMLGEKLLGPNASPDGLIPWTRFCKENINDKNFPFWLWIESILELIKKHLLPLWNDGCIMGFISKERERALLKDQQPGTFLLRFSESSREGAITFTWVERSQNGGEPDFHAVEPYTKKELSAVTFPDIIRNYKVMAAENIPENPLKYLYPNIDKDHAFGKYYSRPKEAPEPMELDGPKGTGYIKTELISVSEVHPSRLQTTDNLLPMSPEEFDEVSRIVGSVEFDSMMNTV
Description: H1299 cells were transiently transfected with FLAG-tagged STAT3 or STAT1 expression construct. Forty-eight hours following transfection, cells were harvested and lysed with 3 cycles of freeze and thaw. 10-20 μg lysate was mixed with 2 μg poly (dI-dC), 1 μg BSA in binding buffer (10 mM HEPES, pH7.9, 50 mM KCl, 10% Glycerol, 0.2 mg/ml BSA, 1 mM DTT and 0.2 mM PMSF), and 4×10^4 cpm [32P]-labeled SIE probe in a total volume of 20 μL. The mixture was incubated for 20 minutes at room temperature and separated on 6% non-denaturing PAGE. The signal was detected by autoradiography. For supershift and competition, 2 μL specific antibodies against STAT3 or STAT1 or 100-fold cold SIE probe (5′-[…]-3′-SEQ ID NO: 1) was added to the reaction mixture and incubated for 30 minutes before adding labeled SIE probe. To determine the effect of inS3-54 on STAT3 or STAT1 binding to SIE probe, inS3-54 was first diluted with DMSO and equal volume of diluted inS3-54 was added to the reaction mixture followed by incubation at room temperature for 30 minutes before incubating with the labeled SIE probe.
EMSA (electrophoretic mobility shift assay) was used for testing in-vitro DNA-binding activity of STAT3 as previously described, Briefly, 20 μg lysate of H1299 cells with transient expression of FLAG-tagged STAT3c or STAT1 was pre-incubated with compounds or vehicle, specific antibodies to STAT3 or STAT1 (Santa Cruz), or excess cold SIE probe (5′-[…]-3′ SEQ ID NO: 2) for 30 mins at room temperature in binding buffer (0.1 μg/μL poly(dI·dC), 10 mM HEPES·KOH, pH 7.9, 50 mM KCl, 10% glycerol, 0.05 μg/μL BSA, 1 mM DTT and 0.2 mM PMSF) before incubating with 4×10^4 cpm [^32P]-labeled SIE probe for 20 min at room temperature. The reactions were separated on 6% non-denaturing polyacrylamide gel signals were detected by autoradiography.

STAT3 = experiment: In-situ STAT3 binding to chromatin (subcellular fractionation, Western blot); format: cell-based, human; conditions: A549 and MDA-MB-231 cells, increasing concentration
Description: Subcellular fractionation was performed as previously described. Briefly, cells were lysed in 10 mM HEPES, pH7.9, 10 mM KCl, 1.5 mM MgCl2, 0.34 M Sucrose, 10% glycerol, 1% Triton X-100, 1 mM DTT, 10 μM leupeptin, protease inhibitor cocktail and centrifuged at 4,200 g for 5 minutes to collect supernatant as cytosolic fraction. The pellet (nuclei) was resuspended in 3 mM EDTA, 0.2 mM EGTA, 1 mM DTT, 10 μM leupeptin, protease inhibitor cocktail and incubated on ice for 30 minutes followed by centrifugation at 5,000 g for 5 minutes. The supernatant was collected as soluble nuclear fraction. The pellet was resuspended in 50 mM Tris/HCl, pH7.4, 150 mM NaCl, 0.5% […], 5 mM EDTA, 50 mM NaF, 1 mM NaVO3, 1% SDS, 1 mM DTT, 10 μM leupeptin, protease inhibitor cocktail and sonicated to release proteins from chromatins.
The in-situ DNA-binding activity of STAT3 was performed by analyzing chromatin-bound STAT3 also as previously described.

IMR90 and MCF10A1 cells = experiment: Cytotoxicity sulphorhodamine (SRB) assay, non-cancerous cells
Description: FIG. 7. […] (A) Level of STAT3 expression and activation. […] Actin was used as a loading control. (B-C) Cytotoxicity assay. […] IC50 of inS3-54 for each cell line was derived using PrismPad program. (D) Apoptosis assay.
Cytotoxicity of inS3-54 was determined using sulphorhodamine colorimetric assay as described previously (41). Photometric enzyme immunoassay using Cell Death Detection ELISA Plus kit (Roche Diagnostics, Indianapolis, Ind.) was performed for quantitative in-vitro determination of cytoplasmic histone-associated DNA fragments and apoptosis as we previously described.
Survival, apoptosis, migration, and invasion assays were performed as previously described. Briefly, effect of STAT3 inhibitors on cell survival were analyzed using sulforhodamine B (SRB) assay. Apoptosis induced by STAT3 inhibitors cells were quantified using Cell Death Detection ELISA^PLUS Kit (Roche, Mannheim, Germany) by enzyme-linked immunosorbent assay (ELISA) according to manufacturer's instructions. Wound filling assay was performed by culturing 1×10^5 cells/well in 6-well plates, followed by generating a wound using a pipet tip and continuous culture with photographic recording at different times.

| Structure (SMILES) | reporter expression driven by a p27 promoter containing no STAT3-binding site (p27 promoter) | specific binding of DNA probe to STAT1 (EMSA) (STAT1; up to 300 μM) | STAT3 in the chromatin-bound fraction (STAT3) | specific binding of DNA probe to STAT1 (EMSA) (STAT1; up to 100 μM) | cytotoxicity to noncancerous cells (IMR90 and MCF10A1 cells) | cytotoxicity to lung fibroblast (IMR90 and MCF10A1 cells) | pIC50 (IMR90 and MCF10A1 cells; read-out: IC50, noncancerous lung fibroblast, lung fibroblast (IMR90)) |
| --- | --- | --- | --- | --- | --- | --- | --- |
| O=C(O)c1ccc(N2C(=O)/C(=C/c3ccc([N+](=O)[O-])cc3)C=C2c2ccccc2)cc1 [inS3-54, 4-[(3E)-3-[(4-nitrophenyl)-methylidene]-2-oxo-5-phenylpyrrol-1-yl]benzoic acid] | did not inhibit | not affected | decreases | – | – | – | – |
| O=C1C(=Cc2ccc(Cl)cc2)C=C(c2ccccc2)N1c1ccc(O)cc1 [Compound A18] | none of these three analogues inhibited | – | decreases | not affected | little cytotoxicity | – | – |
| CC(=O)Nc1ccc(N2C(=O)C(=Cc3ccc(Cl)cc3)C=C2c2ccccc2)cc1 [Compound A26] | none of these three analogues inhibited | – | – | not affected | – | high level cytotoxicity | 5.40 |
